Reference: paper PMC11823679, “Protamine protects against vancomycin-induced kidney injury” (Antimicrobial Agents and Chemotherapy, 2025)
pIC50: −log10 of the molar value. Entries after “also recorded” stand apart in the source; their conditions may differ.

Legend:
[1] = system: Urinary KIM-1; test: Urinary KIM-1 kidney injury in rats given vancomycin and/or protamine
Experimental: Male Sprague-Dawley rats (n = 19; age 8–10 weeks; 268–304 g; Envigo, Indianapolis, IN, USA) underwent double jugular catheterization ([33]) (Fig. 3A). Surgery was performed under ketamine (100 mg/kg of body weight) and xyalzine (10 mg/kg of body weight) anesthesia with buprenorphine (0.02 mg/kg of body weight) given post-operatively for pain management. Animals were allowed to recover 4 days before the administration of any drug. Animals were housed in metabolic cages starting 1 day prior to day 0 with access to food and water ad libitum for the duration of the study (Fig. 3B).
Animals were divided into three experimental treatment protocols. Using a dedicated jugular vein for dosing, the animals received clinical grade intravenous protamine and/or vancomycin in doses allometrically scaled to humans according to the following protocols: (i) protamine sulfate (1.5 mg/kg of body weight) and vancomycin (150 mg/kg of body weight) (n = 6); (ii) protamine only (1.5 mg/kg of body weight) with saline sham (sham for volume of vancomycin) (n = 7); or (iii) vancomycin only (150 mg/kg of body weight) with saline sham (sham for volume of protamine) (n = 6) ([34][–][36]). Saline sham was given to match the volumes of protamine and vancomycin doses to maintain euvolemia. On day 0, all animals received only iohexol (51.8 mg/day) intravenously to establish baseline GFR measurements. Drugs were administered as described above by treatment protocols to all groups on days 1–4. Infusion times for each of the drugs include (i) protamine sulfate, 5 minutes; (ii) vancomycin and iohexol, 2 minutes; and (iii) saline sham, 5 or 2 minutes depending on what the sham was replacing.
Urine samples were collected daily, and volumes were measured starting from day 0 to day 4. Samples were centrifuged at 500 g for 10 minutes, and the resulting supernatant was aliquoted (1.5 mL) and stored at −80°C for renal biomarker analysis later.
Urinary samples were analyzed for KIM-1 using the Milliplex MAP Rat Kidney Toxicity Magnetic Bead Panel 1 (EMD Millipore Corporation, Charles, MO, USA) according to the manufacturer’s directions and as previously described ([34], [36], [37]). Briefly, neat urine aliquots were mixed with monoclonal antibody-coated magnetic microbeads (Bead Panel 1) and run on a 96-well plate, which also included a standard curve. Biomarker data were acquired, and concentrations were analyzed using Belysa Immunoassay Curve-Fitting Software V1 (MilliporeSigma, Darmstadt, Germany). The amount of urinary KIM-1 excreted over the 24-h collection period was obtained by multiplying the urinary concentration by 24-h urinary volume.
An omnibus test, i.e., joint tests (multi-degree of freedom) of the interaction and main effects, which is similar to the F test in ANOVA, was used initially (STATA 17.0 BE, StataCorp LLC, College Station, TX, USA). Only models with significant interaction at P < 0.05 were selected for post hoc analysis (i.e., identification of the difference between treatment groups and days). Margins were calculated for a full factorial of the variables, i.e., main effects for each variable and interactions. Referent groups were pre-treatment baseline values and protamine alone as a treatment, except where noted. […] LOWESS graphs were produced in R version 4.2.2 using ggplot2. […] All tests were two-tailed; a P < 0.05 was required for statistical significance. Graphs for cellular studies were generated using GraphPad version 9.3.1 and were fit with a log(inhibitor) vs normalized response function after log transformation.

[2] = in vivo; cited from earlier work
Experimental: Additional work i ... || Despite the promise of protamine as a new treatment approach, this study is subject to several limitations. First, our study was performed in rats. While the rat model has shown strong relevance to the human condition ([14]) with respect to VAN, clinical trials are necessary to confirm the effect. Second, protamine delayed kidney injury by 1–3 days; however, a multi-pronged approach may be needed to fully suppress injury in vancomycin therapy that exceeds 2 days. Third, as noted above, protamine is not a viable therapeutic for patients who require heparin. Fourth, protamine itself is associate ...

[3] = system: OAT1; test: OAT1 inhibition study (CHOK1 cells, p-aminohippurate substrate); type: cell-based; details: for Inhibition of OAT1 (in words): p-aminohippurate 10 µM
Experimental: (§1) Organic anion transporter (OAT1 and OAT3) and OCT2 inhibition studies with protamine sulfate were performed by Eurofins Scientific (St. Charles, MO, USA) as previously described ([38], [39]). Protamine sulfate was dissolved in DMSO to 1.0E-02 M and tested concurrently with p-aminohippurate 10 µM (substrate) for OAT1, ranitidine 10 µM (substrate) for OAT3, and metformin 100 µM (substrate) for OCT2. A pre-incubation time of 30 minutes was used, followed by 20 minutes of incubation with the substrate. CHOK1 cells were used in OAT1 and 3 experiments, and HEK cells were used in OCT2 experiments. The percentage of inhibition was calculated vs the percentage of control. The IC50 value (concentration causing a half-maximal inhibition of the control value) was determined by nonlinear regression analysis of the concentration-response curve from a Hill equation.
(§2) No data were excluded as outliers.

[4] = system: opossum kidney cells; details: cited from earlier work
Source text: Based on chemical structure, we hypothesized that protamine might block megalin and decrease VAN. While relatively little information is available on the megalin-binding capacity of protamine, protamine shares binding sites with heparin (which is the current target for FDA-approved use) and megalin ([30], [31]). […] Megalin antagonists ... || Originally derived from salmon fish sperm (salmine), protamine is a highly positively charged protein consisting of 32 amino acids. Currently, it is widely used as an effective agent to neutralize heparin using electrostatic bonds made between the cationic arginine groups of protamine and the anionic heparin in a 1:1 ratio ([6]). Specifically, protamine shares binding sites with heparin (current target for FDA-approved use) and megalin ([30], [31]). On this note, a clinical limitation for the use of protamine arises for patients who require heparin infusions, such as post-diabetic foot infecti ...

[5] = system: OAT3; test: OAT3 inhibition study (CHOK1 cells, ranitidine substrate); type: cell-based; details: for Inhibition of OAT3 (in words): ranitidine 10 µM
Experimental: as §1, §2

[6] = system: OCT2; test: OCT2 inhibition study (HEK cells, metformin substrate); type: cell-based; details: for Inhibition of OCT2 (in words): metformin 100 µM
Experimental: as §1, §2

[7] = CHOK1 cells, listed as protamine

Protamine
Protective effect against vancomycin-associated nephrotoxicity (in words) ([1]; addition of protamine to vancomycin): provides a protective effect against vancomycin-associated nephrotoxicity | Delay of vancomycin-induced kidney injury as defined by urinary KIM-1 ([1]; protamine added to vancomycin therapy): 1 to 3 days | KIM-1 change from baseline of day 1 (in words) ([1]; rat, in vivo): did not have a KIM-1 increase over the 4 days | KIM-1 compared to protamine alone (in words) ([1]; rat, in vivo): did not experience this increase on day 2 | KIM-1 compared to vancomycin alone (in words) ([1]; rat, in vivo): numerically similar to animals that received vancomycin alone | Injury prevention (in words) ([1]; urinary KIM-1, protamine with vancomycin): a full day of injury prevention | Safety liabilities (in words) [2]: severe hypotension and anaphylactoid-like reactions | Toxicities (in words) [2]: cardiopulmonary dysfunction and shock as well as antibody-mediated hypersensitivity reactions | Inhibition of OAT1 (in words) ([3]; CHOK1 cells): does not appear to have significant inhibition on OAT1, OAT3, or OCT2 | pIC50 ([3]; CHOK1 cells, p-aminohippurate 10 µM substrate, pre-incubation 30 minutes, 20 minutes with substrate, protamine sulfate in DMSO, Eurofins): 4.00 | Inhibition of OAT1 (in words) [3, 7]: No substantial inhibition; also recorded: does not have a significant inhibition on OAT1, OAT3, or OCT2 except at extremely high concentrations; also recorded: little to no inhibition | IC50 ratio protamine vs probenecid ([3]; OAT1): 62.5 times higher | Inhibition of OAT-1 ([3]; at 0.1 mM protamine, Fig. 6): < 50% | Entry into kidney epithelial cells (in words) [4]: enters kidney epithelial cells and localizes in the cytoplasm via receptor-mediated endocytosis | Inhibition of gentamicin uptake (in words) ([4]; cultured opossum kidney cells that expressed megalin and cubilin, ref Nagai and colleagues ([32])): inhibited the uptake of gentamicin | Prevention of gentamicin accumulation (in words) ([4]; kidney epithelial cells): has demonstrated prevention of gentamicin accumulation | Inhibition of OAT3 (in words) ([5]; CHOK1 cells): does not appear to have significant inhibition on OAT1, OAT3, or OCT2 | pIC50 ([5]; CHOK1 cells, ranitidine 10 µM substrate, pre-incubation 30 minutes, 20 minutes with substrate, protamine sulfate in DMSO, Eurofins): 4.00 | Inhibition of OAT3 (in words) [5, 7]: No substantial inhibition; also recorded: does not have a significant inhibition on OAT1, OAT3, or OCT2 except at extremely high concentrations; also recorded: little to no inhibition | IC50 ratio protamine vs probenecid ([5]; OAT3): 58.8 times higher | Inhibition of OAT-3 ([5]; at 0.1 mM protamine, Fig. 6): < 50% | Inhibition of OCT2 (in words) ([6]; HEK cells): does not appear to have significant inhibition on OAT1, OAT3, or OCT2 | pIC50 ([6]; HEK cells, metformin 100 µM substrate, pre-incubation 30 minutes, 20 minutes with substrate, protamine sulfate in DMSO, Eurofins): 4.37 | Inhibition of OCT2 (in words) ([6]; HEK cells, listed as protamine): No substantial inhibition; also recorded: does not have a significant inhibition on OAT1, OAT3, or OCT2 except at extremely high concentrations; also recorded: minor inhibition | IC50 ratio protamine vs verapamil ([6]; OCT2): 5.2 times higher | Inhibition of OCT-2 ([6]; at similar concentrations (to 0.1 mM) of protamine, Fig. 6): at least 50%
